Data as given in patent US20230338543A1, “GAMMA-HYDRO[…] AND PROCESSES FOR MAKING AND USING THEM” (Zevra Therapeutics, Inc., priority 2022, published 2023).

Test: Pharmacokinetics of GHB in plasma after oral gavage of GHB delivering compounds in rats; relative oral bioavailability vs sodium oxybate
Details: vehicle water; for % AUC0-4 hr, relative oral bioavailability vs sodium oxybate / % Cmax, relative oral bioavailability vs sodium oxybate: mean conjugate PK parameter/mean comparator PK parameter
[1] = molar equivalent of 100 mg/kg NaGHB
[2] = dose equivalent to 80 mg/kg NaGHB (extrapolated to 100 mg/kg)
[3] = dose equivalent to 80 mg/kg NaGHB, data extrapolated to 100 mg/kg

Row | Compound | AUC0-4 hr of GHB in plasma [1] [µg·h/mL] | Cmax of GHB in plasma [1] [µg/mL] | Tmax of GHB in plasma [1] [min] | % AUC0-4 hr, relative oral bioavailability vs sodium oxybate [1] [%] | % Cmax, relative oral bioavailability vs sodium oxybate [1] [%] | % AUC0-4 hr, relative oral bioavailability vs sodium oxybate [2] [%] | % Cmax, relative oral bioavailability vs sodium oxybate [2] [%] | AUC0-4 hr of GHB in plasma [3] [µg·h/mL] | Cmax of GHB in plasma [3] [µg/mL] | Tmax of GHB in plasma (dose equivalent to 80 mg/kg NaGHB) [min]
1 | O=C1CCCO1 [GBL] | 0.00904 | 0.0154 | 15 | 27 | 70 |  |  |  |  | 
2 | CCOC(=O)OCCCC(=O)O [O-(ethoxycarbonyl)-GHB] |  |  |  |  |  | 54 | 51 | 0.0194 | 0.015 | 21
